Columns and labels:
CNV lesions [1] = experiment: Evaluation of the grade of CNV by fluorescein angiography (leakage from laser-induced CNV lesions); format: in vivo, mice expressing human HLA-A*0201
Procedure: (§1) C57bl/6 mice with body weight of 20 g to 25 g were obtained from CLEA Japan (Tokyo, Japan). All experiments were conducted in accordance with the Animal Care and Use Committee and the Statement for the Use of Animals in Ophthalmic and Vision Research by the Association for Research in Vision and Opthalmology. Mice used in the experiments express human HLA-A*0201.
(§2) The mice were separated into three groups. PBS, an immunity adjuvant (incomplete Freund's adjuvant (IFA)), or a suspension of a human VEGF receptor 2-derived antigenic peptide and IFA was injected subcutaneously into the axillae twice (day 0 and day 10). […] Subsequently, on day 20, CNV was induced at three sites in both eyes using a semiconductor laser set to φ 200 μm, 200 mW, and 0.02 seconds.
(§3) Experimental CNV was induced as described elsewhere with minor modifications. In short, general anesthesia was induced with an intraperitoneal injection (1 mL/kg) of a mixture (1:1) of ketamine hydrochloride (Ketalar®, Sankyo, Tokyo, Japan) and xylazine hydrochloride (Celactal®, Bayer, Tokyo, Japan). The pupil was dilated using one drop of 0.5% tropicamide (Mydrin® M, Santen Pharmaceutical, Osaka, Japan) for photocoagulation. Six laser photocoagulations were applied to each eye between the major retinal vessels around the optic disc with a diode laser photocoagulator (DC-3000®, NIDEK, Osaka, Japan) and a slit lamp delivery system (SL150, Topcon, Tokyo, Japan) at a spot size of […], duration of 0.02 seconds, and intensity of 200 mW.
Three and seven days after CNV induction (on day 23 and day 27), a total of 169 animals were used to examine the effect on leakage from the CNV lesions (on the third day, the number of animals from the control group, low-dose group, and high-dose group was 41, 34, and 18, respectively; on the seventh day, the number of animals from the control group, low-dose group, and high-dose group was 51, 15, and 10, respectively). […]
(§4) The fluorescein fluorescent fundus angiography scores were evaluated using Mann-Whitney U test. The size of CNV lesion was evaluated by ANOVA followed by Dunnett's post hoc test. […]

CNV lesions [2] = experiment: Measurement of the CNV size by choroidal flat mount; format: in vivo, mice expressing human HLA-A*0201
Procedure: as §1, §2, §3
A total of 36 mice were used for choroidal flat mount analysis (the number of mice from each group on the third day and the seventh day was 4 and 8, respectively). Three days and seven days after laser treatment, the size of CNV lesion was evaluated using choroidal flat mounts as previously described. The mice were anesthetized and perfused with 1 mL of phosphate buffered saline (PBS) containing 50 mg/mL FITC-conjugated dextran (4.4 kDa, 50 mg/kg body weight; Sigma). Then, the eyes were enucleated, and the cornea and lens were removed, and the entire retina was carefully dissected from the eye cup. Radial cuts were made from the edges of the equator, and the eyecup was flat-mounted on a glass slide with the sclera facing down. The flat-mounted sections were observed under a fluorescence microscope (Olympus DPSO), and the images were captured using a CCD camera. The data were imported into a computer using a software system (Studio lite). […] The data were expressed as mean±standard error.
as §4

VEGF = VEGF up-regulation in experimental CNV; conditions: in vivo
tumor model = conditions: cited from earlier work
[3] = seventh day, low-dose group vs control group

Sequence: VIAMFFWLL (IFA emulsion; listed as Homo sapiens) [nine amino acids from position 773 of human VEGFR-2; injected as a suspension with IFA]
- fluorescein leakage from the CNV lesions (CNV lesions [1]; seventh day, high-dose group vs control): lower
- leakage from CNV lesions (CNV lesions [1]; [3]): not statistically significant, the leakage from CNV lesions was lower
- degree of fluorescein leakage from CNV lesions (CNV lesions [1]; third day after CNV induction, low-dose and high-dose groups vs control group, s.c. injection day 0 and day 10): no difference was observed
- CNV growth (CNV lesions [2]; in vivo, effect observed only on the seventh day and not on the third day): inhibits CNV growth
- CNV lesion size (CNV lesions [2]; seventh day, high-dose group vs control group): significantly decreased
- CNV lesion size (CNV lesions [2]; [3]): significantly decreased
- CNV lesion size (CNV lesions [2]; third day, low-dose and high-dose groups vs control group): No difference was observed
- VEGF up-regulation (VEGF): suppresses VEGF up-regulation
- antiangiogenic effect (tumor model): confirmed to have antiangiogenic effect
